Results on seven molecules are retold here after publication PMC8746696 (Molecules, 2021).

Data set [1] concerns HeLa cells. The data set can be described thus: Influence on topotecan cytotoxicity (sensitization, combination index). The class given is cell-based, human. The settings on record: compound 5 μM.
Data set [2] relates to HeLa cells. The description is as above. The data set is classed as cell-based, human. The procedure: The inhibitors were studied, using their non-toxic concentration, to determine the cytotoxicity of topotecan, which is widely used in the treatment of cancer.
The concentration of these two compounds was increased to 10 μM and a more distinct effect was observed (Figure 3B). The combination index (CI) for different concentrations of topotecan and 5 at 10 μM was in the range 0.26–0.44, and for 8 at 10 μM, it was 0.18–0.30 (Supplementary Materials, Tables S1 and S2). CI value <1 indicates a synergistic effect of topotecan and compounds 5 and 8 [34].
The cell culture was monitored for three days.

The target of data set [3] is T1, recombinant human TDP2 (Homo sapiens, UniProt O95551).
T1 sequence (O95551 1-362): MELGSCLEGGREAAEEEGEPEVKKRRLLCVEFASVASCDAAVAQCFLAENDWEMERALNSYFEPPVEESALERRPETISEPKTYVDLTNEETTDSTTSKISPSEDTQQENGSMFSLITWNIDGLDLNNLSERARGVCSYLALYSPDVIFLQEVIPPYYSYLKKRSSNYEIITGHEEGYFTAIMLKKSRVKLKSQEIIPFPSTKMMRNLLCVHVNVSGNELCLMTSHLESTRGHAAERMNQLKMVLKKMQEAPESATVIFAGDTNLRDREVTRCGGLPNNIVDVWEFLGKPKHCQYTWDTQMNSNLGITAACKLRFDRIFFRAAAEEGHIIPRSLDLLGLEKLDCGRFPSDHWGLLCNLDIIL
Kind of data set: Gel-based TDP2 activity assay (removal of 5'-tyrosine from oligonucleotide, PAGE). The class given is biochemical. Further details: key to Tdp2 activity, c 200 µM / Tdp2 (inhibitor concentration 1 mM): TDP2 active (+); -: inactive (−). Conditions: for Tdp2 activity, c 200 µM: c 200 µM (Table S3 head); for Tdp2 (inhibitor concentration 1 mM) / remaining activity at 1000 µM: inhibitor 1 mM; for remaining activity at 1000 µM: residual enzyme activity, read-out: TDP2 (Inhibitor Concentration 1 mM), residual activity of TDP2. The procedure: We investigated the activity against the TDP2 enzyme for compounds 4–10, 12–15, and 17–19 (Table 1). TDP2 was tested for its ability to eliminate tyrosine residue from the 5’-end of the oligonucleotide substrate. The TDP2 reaction products were separated under denaturing conditions in polyacrylamide gel (PAGE). […] Note that as different assays formats were used for TDP1 and TDP2 inhibition, the value of these assays cannot be directly compared. A paper on derivatives of usnic acid as effective TDP1 inhibitors and mild inhibitors of TDP2 was recently published. […] More inhibitors of this enzyme have also been reported in the literature. Obviously, further work for increasing activity against TDP2 is needed.
The oligonucleotide with tyrosine residue on the 5′-end (5′-tyrosine-AAC GTC AGG GTC TTC C-FAM-3′) was used for the TDP2 enzyme activity assay. The TDP2 reaction products were separated under denaturing conditions in polyacrylamide gel (PAGE). The reaction was performed in a final volume of 20 μL using 100 nM substrate incubated with 200 nM recombinant human TDP2 in the absence or presence of the inhibitor for 10 min at 37 °C in a buffer containing 50 mM Tris-HCl, pH 8.0, 50 mM NaCl, 7 mM β-mercaptoethanol. Reactions were terminated by the addition of gel loading buffer contained 10% formamide, 7 M carbamide, 0.1% xylene cyanol, and 0,1% bromophenol blue. The samples were heated at 90 °C for 7 min before loading on the gel. The reaction products were separated by electrophoresis in a 20% denaturing PAGE with 7 M carbamide. A Typhoon FLA 9500 phosphorimager (GE Healthcare) was used for gel scanning and imaging. Each experiment was carried out in three independent replicates. The data were analyzed with QuantityOne 4.6.7 software.

The nature of data set [4]: Intrinsic cytotoxicity, EZ4U assay, HEK293A. The settings on record: human, HEK293A cells.
Description: (§1) Next, we examined the intrinsic cytotoxicity of the compounds on HeLa cervical cancer cells and human embryonic kidney derived cells HEK293A.
(§2) Cytotoxicity of the compounds to HeLa (human cervical cancer) and HEK293A (human embryonic kidney) cell lines was examined using the EZ4U Cell Proliferation and Cytotoxicity Assay (Biomedica, Vienna, Austria), according to the manufacturer’s protocols. The cells were grown in Iscove’s modified Dulbecco’s medium (IMDM) with 40 μg/mL gentamicin, 50 IU/mL penicillin, 50 μg/mL streptomycin (MP Biomedicals, Waltham, MA, USA), and 10% of fetal bovine serum (Biolot, Saint Petersburg, Russia) in a 5% CO2 atmosphere. After the formation of a 30–50%monolayer, the tested compounds were added to the medium. […] The volume of the added reagents was 1/100 of the total volume of the culture medium, and the amount of DMSO was 1% of the final volume. Control cells were grown in the presence of 1% DMSO. The cell culture was monitored for three days.
Data set [5] in a line: Intrinsic cytotoxicity, EZ4U assay, HeLa. The settings on record: human, HeLa cells.
Description: as §1, §2
The subject of data set [6] is HeLa cells. The data set can be described thus: Intrinsic cytotoxicity, EZ4U assay, HeLa.
Description: as §1, §2
The target in data set [7] is TDP1 (Homo sapiens, UniProt Q9NUW8). Kind of data set: Real-time fluorescence detection of TDP1 activity (FAM/BHQ1 oligonucleotide biosensor). The class given is biochemical. Conditions: concentration that inhibits the activity of the enzyme by 50%; read-out: TDP1 IC50. From the text: For real-time detection of TDP1 activity, we used the oligonucleotide biosensor based on the ability of TDP1 to remove fluorophore quenchers from the 3′-end of DNA [29]. The hexadecameric oligonucleotide carried 5(6)-carboxyfluorescein (FAM) at the 5′-end and fluorophore quencher BHQ1 (Black Hole Quencher-1) at the 3′-end. TDP1 inhibitors prevent the removal of fluorophore quenchers, thus reducing fluorescence intensity.
TDP1 activity was detected, as described by intensity measurement in a reaction of quencher removal from a fluorophore quencher–coupled DNA oligonucleotide catalyzed by TDP1. The reaction was carried out at different concentrations of inhibitors (the control samples contained 1% of DMSO). The reaction mixtures contained TDP1 buffer (50 mM Tris-HCl pH 8.0, 50 mM NaCl, and 7 mM β-mercaptoethanol), 50 nM biosensor, and an inhibitor being tested. Purified TDP1 (1.5 nM) triggered the reaction. The biosensor (5′-[FAM] AAC GTC AGGGTC TTC C [BHQ]-3′) was synthesized in the Laboratory of Nucleic Acid Chemistry at the Institute of Chemical Biology and Fundamental Medicine (Novosibirsk, Russia).
The reactions were incubated on a POLARstar OPTIMA fluorimeter (BMG LABTECH, GmbH, Ortenberg, Germany) to measure fluorescence every 60 s (ex. 485/em. 520 nm) during the linear phase (here, data from minute 0 to minute 8). The values of IC50 were determined using a six-point concentration response curve in a minimum of three independent experiments and were calculated using MARS Data Analysis 2.0 (BMG LABTECH, Ortenberg, Germany).

For data set [8], the system named is HeLa cells.
Description: as §1, §2

TDP1, sequence (Q9NUW8 whole entry): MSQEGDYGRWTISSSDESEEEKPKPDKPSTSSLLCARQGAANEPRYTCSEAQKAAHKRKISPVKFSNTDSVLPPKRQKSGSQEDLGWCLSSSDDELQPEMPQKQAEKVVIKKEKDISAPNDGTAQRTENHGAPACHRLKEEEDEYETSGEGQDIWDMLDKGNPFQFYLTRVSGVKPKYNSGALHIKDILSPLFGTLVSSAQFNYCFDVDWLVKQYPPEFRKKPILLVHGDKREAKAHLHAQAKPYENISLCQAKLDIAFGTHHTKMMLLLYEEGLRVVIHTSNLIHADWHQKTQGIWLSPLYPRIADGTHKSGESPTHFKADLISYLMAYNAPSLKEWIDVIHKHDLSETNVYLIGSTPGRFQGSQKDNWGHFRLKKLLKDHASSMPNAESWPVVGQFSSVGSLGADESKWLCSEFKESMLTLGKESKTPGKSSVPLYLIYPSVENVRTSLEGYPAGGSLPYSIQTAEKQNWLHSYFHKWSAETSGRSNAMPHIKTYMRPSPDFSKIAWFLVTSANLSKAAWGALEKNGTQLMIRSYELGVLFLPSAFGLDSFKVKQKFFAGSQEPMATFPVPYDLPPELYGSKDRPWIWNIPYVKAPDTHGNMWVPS

`C[C@H](CCC(=O)NCCc1c[nH]c2ccccc12)[C@H]1CC[C@H]2[C@@H]3CC[C@@H]4C[C@H](OCc5ccccc5)CC[C@]4(C)[C@H]3C[C@H](O)[C@]12C` [Compound 5, N-(2″-(1H-Indol-3′-yl)ethyl)-3α-benzyloxy-12α-hydroxy-5β-cholane-24-amide]: the “sensitizing effect on topotecan cytotoxicity” value in data set [1] is on record as “greatest sensitizing effect”. Further, the CI in data set [2] (Dose Tpc 0.3 + compound 10 μM) amounted to 0.4463; in data set [2] (Dose Tpc 0.5 + compound 10 μM), 0.3748; in data set [2] (Dose Tpc 1.0 + compound 10 μM), 0.3937; in data set [2] (Dose Tpc 2.0 + compound 10 μM) it was 0.2628; in data set [2] (Dose Tpc 4.0 + compound 10 μM), 0.4189. Also, the Effect turned out to be 0.61 in data set [2] (Dose Tpc 0.3 + compound 10 μM); 0.76 in data set [2] (Dose Tpc 0.5 + compound 10 μM); 0.86 in data set [2] (Dose Tpc 1.0 + compound 10 μM); 0.95 in data set [2] (Dose Tpc 2.0 + compound 10 μM); 0.96 in data set [2] (Dose Tpc 4.0 + compound 10 μM). Further, the “Tdp2 activity, c 200 µM” value in data set [3] was “+”. The “Tdp2 (inhibitor concentration 1 mM)” value in data set [3] is recorded as “+”. Also, the remaining activity at 1000 µM in data set [3] worked out at 28 ± 5%. In addition, the CC50 at 72 h in data set [4] and in data set [5] was more than 100 µM each time. Further, the HeLa cell death in data set [6] (at 100 μM) is recorded as 40%. In addition, the IC50 in data set [7] came out at 0.24 ± 0.01 µM.

For `C[C@H](CCC(=O)NCCc1c[nH]c2ccccc12)[C@H]1CC[C@H]2[C@@H]3CC[C@@H]4C[C@H](OCc5ccccc5)CC[C@]4(C)[C@H]3CC(=O)[C@]12C` [Compound 6, N-(2″-(1H-Indol-3′-yl)ethyl)-3α-benzyloxy-12-oxo-5β-cholane-24-amide], in data set [3], the “Tdp2 activity, c 200 µM” value is “+”; the “Tdp2 (inhibitor concentration 1 mM)” value is reported as “+”; the remaining activity at 1000 µM amounted to 45 ± 4%. In data set [4], this molecule showed a CC50 at 72 h of more than 100 µM. In data set [5], this molecule came in with a 50% cytotoxic concentration (CC50) at 72 h of more than 100 µM. For the same molecule, the IC50 in data set [7] stood at 0.59 ± 0.13 µM.

On to `C[C@H](CCC(=O)Nc1ccc(Br)cc1)[C@H]1CC[C@H]2[C@@H]3CC[C@@H]4C[C@H](OCc5ccccc5)CC[C@]4(C)[C@H]3C[C@H](O)[C@]12C` [Compound 8, N-(4′-Bromophenyl)-3α-benzyloxy-12α-hydroxy-5β-cholane-24-amide], for which the “sensitizing effect on topotecan cytotoxicity” value in data set [1] is “greatest sensitizing effect”. Further, the CI came out at 0.2446 in data set [2] (Dose Tpc 0.5 + compound 10 μM), 0.2817 in data set [2] (Dose Tpc 1.0 + compound 10 μM), 0.1757 in data set [2] (Dose Tpc 2.0 + compound 10 μM) and 0.3046 in data set [2] (Dose Tpc 4.0 + compound 10 μM). Also, the Effect worked out at 0.67 in data set [2] (Dose Tpc 0.5 + compound 10 μM), 0.78 in data set [2] (Dose Tpc 1.0 + compound 10 μM), 0.92 in data set [2] (Dose Tpc 2.0 + compound 10 μM) and 0.93 in data set [2] (Dose Tpc 4.0 + compound 10 μM). In addition, in data set [3], the “Tdp2 activity, c 200 µM” value is “+”. Also, the “Tdp2 (inhibitor concentration 1 mM)” value in data set [3] is “+”. For the same molecule, the remaining activity at 1000 µM in data set [3] worked out at 47 ± 3%. Further, the 50% cytotoxic concentration (CC50) at 72 h in data set [4] and in data set [5] was more than 100 µM throughout. Moreover, the HeLa cell death is 40% in data set [6] (at 20 μM) and “maintaining this level of toxicity” in data set [6] (at 100 μM). In addition, the IC50 in data set [7] was 0.57 ± 0.3 µM.

On to `C[C@H](CCC(=O)Nc1ccc(Br)cc1)[C@H]1CC[C@H]2[C@@H]3CC[C@@H]4C[C@H](OCc5ccccc5)CC[C@]4(C)[C@H]3CC(=O)[C@]12C` [Compound 9, N-(4′-Bromophenyl)-3α-benzyloxy-12-oxo-5β-cholane-24-amide], for which, in data set [3], the “Tdp2 activity, c 200 µM” value is given as “+”; the “Tdp2 (inhibitor concentration 1 mM)” value was “+”; the remaining activity at 1000 µM is 39 ± 6%. The same molecule displayed a CC50 at 72 h in data set [4] of more than 100 µM. This molecule returned a CC50 at 72 h in data set [5] of more than 100 µM. The IC50 in data set [7] is 0.71 ± 0.34 µM.

On to `C[C@H](CCC(=O)NCCCc1cc(C(C)(C)C)c(O)c(C(C)(C)C)c1)[C@H]1CC[C@H]2[C@@H]3CC[C@@H]4C[C@H](OCc5ccccc5)CC[C@]4(C)[C@H]3C[C@H](OCc3ccccc3)[C@]12C` [Compound 10, N-(3″-(3′,5′-Di-tert-butyl-4′-hydroxyphenyl)propyl)-3α,12α-dibenzyloxy-5β-cholane-24-amide], for which, in data set [3], the “Tdp2 activity, c 200 µM” value is “+”; the “Tdp2 (inhibitor concentration 1 mM)” value is “+”; the remaining activity at 1000 µM was found to be 45 ± 6%. Moreover, in data set [4], the 50% cytotoxic concentration (CC50) at 72 h was more than 100 µM. This molecule also registered a CC50 at 72 h in data set [5] of more than 100 µM. Further, in data set [7], the IC50 was 0.37 ± 0.17 µM.

Consider `COc1cc([C@@H]2c3cc4c(cc3[C@@H](O[C@@H]3O[C@@H]5CO[C@@H](C)O[C@H]5[C@H](O)[C@H]3O)[C@H]3COC(=O)[C@H]23)OCO4)cc(OC)c1O` [Etoposide, reference compound], for which the semi-toxic concentrations result in data set [8] is listed as “micromolar”. Moreover, the cytotoxic concentration (CC50) at 72 h in data set [4] worked out at 5.9 ± 1.8 µM; in data set [5], 6.2 ± 0.6 µM.

For `CC[C@@]1(O)C(=O)OCc2c1cc1n(c2=O)Cc2cc3c(CN(C)C)c(O)ccc3nc2-1` [Topotecan, reference compound], in data set [8], the semi-toxic concentrations entry was “submicromolar”. Also, the CC50 at 72 h in data set [4] amounted to 0.33 ± 0.07 µM; in data set [5], 0.9 ± 0.1 µM.
